From US20230052740A1, “MODULATORS OF CIRCADIAN RHYTHMS AND USES THEREOF” (The Regents of the University of California, priority 2019, published 2023) come the findings set out here.

Data set [1] is described as follows: Mouse pharmacokinetic (PK) studies. The settings on record: for Brain/Plasma Ratio: 30′; for T1/2: plasma. It is filed as in vivo.
Data set [2] deals with C3H/HeN mice. Put plainly: Phase shift of circadian running wheel activity onset in constant dark. It is filed as in vivo, mouse. The settings on record: for advance of the onset of activity: 0.9 μg/mouse (~30 μg/Kg) s.c., CT10 (dusk), 3 days; for advance of the onset of running wheel activity: 30 μg/mouse (1 mg/Kg) s.c., CT10, WT; for EC50 of in vivo activity (circadian phase shift): mouse. From the text: Male and female C3H/HeN (C3H) wild-type (WT), MT1 knockout (MT1KO), and MT2 knockout (MT2KO) mice (average 6.28 months) used in this study were raised in our breeding colony at University at Buffalo. […] Genotype was confirmed using tail samples at the end of each experiment and was verified periodically during the tenure of the colony. The strains of mice in our breeding colony were re-derived periodically by backcrossing with WT mice to reduce genetic drift.
Mice were group housed (3-5 per cage) with corncob bedding in polycarbonate translucent cages (30×19 cm) and maintained in a 14/10 light-dark (LD) cycle (Zeitgeber time 0 or ZT0 corresponds to Lights ON and ZT 14 to Lights OFF) in temperature and humidity controlled rooms with ad libitum access to food and water in the Laboratory Animal Facility at the University at Buffalo. Light levels were 200-300 lux at the level of the cage. Treatments and animal care performed in the dark were under a dim red safelight (15 watts, Kodak 1A filter) with illuminance of less than 3-5 lux (Benloucif, S. & Dubocovich, M. L. J Biol Rhythms 11, 113-125, (1996). All experimental procedures using mice were conducted in accordance with guidelines set forth by the National Institutes of Health and approved by the University at Buffalo Institutional Animal Care and Use Committee.
Circadian rhythm phase was determined for each mouse using the onset of running wheel activity defined as CT12 (Circadian Time 12). Running wheel activity was measured continuously via magnetic microswitches detecting wheel revolutions with a computer equipped with Clocklab data collection Software™ (Actimetrics: Wilmette, Ill.). All actigraphy data was visualized and analyzed using ClockLab™ and MATLAB™ software. All mice were individually housed in cages (33×15 cm) equipped with running wheels in light-tight ventilated cabinets with controlled temperature and LD cycles (Phenome Technologies: Skokie, Ill.). Male and female mice were housed in separate cabinets for all experiments.
Following a period of 14 days in a LD cycle mice were placed in constant dark (DD) beginning at ZT12 (dark onset). Mice were keptin DD (2-3 weeks) untilastable free-running phase of running wheel activity rhythm onset was established. Circadian times of treatment were predicated from best fit lines of running wheel activity onsets for of running either pre (7-14 days) and post (7-14 days) treatment. Treatment times were at CT10 (CT9-11) and CT2 (CT1-3) within a 3 hour window. […] Vehicle or drug treatments were repeated for 3 consecutive days at the selected circadian time following the three-pulse treatment protocol described (Benloucif, supra). Phase shifts were quantified using the best-fit lines for onsets of activity during pre and post treatment periods. Differences are characterized as phase delays (pre-treatment ahead of post treatment best fit line onset) or phase advances (post treatment ahead of pre treatment best fit line onset) of running wheel activity onset rhythms.
All statistical analyses as described in further detail for each experiment were conducted using GraphPad Prism 8™ (La Jolla, Calif.). All data sets were visualized for normality using QQ plots of predicted vs. actual residuals. Actigraphy data was generated for visualization blind to treatment prior to the quantification and statistical analysis stages. […] Data in FIGS. 4F & 4G were compared via a two-way ANOVA (3×2: genotype x treatment) with Tukey's post hoc analyses (P<0.05). Comparisons for FIG. 4L, FIGS. 11H-11J were made by mixed effect two-way repeated measures ANOVA (treatment×time) with Sidak's post hoc test (P<0.05). Number of days to re-entrainment was compared via one-way ANOVA or two-way ANOVA for FIG. 4M & FIG. 4N with a Dunnet's & Tukey's post hoc test (P<0.05) respectively. P values and values for statistical analyses are included in figure legends. […]

For data set [3], the target named is T1, MT2 (Homo sapiens, UniProt P49286).
T1 sequence (P49286 1-362): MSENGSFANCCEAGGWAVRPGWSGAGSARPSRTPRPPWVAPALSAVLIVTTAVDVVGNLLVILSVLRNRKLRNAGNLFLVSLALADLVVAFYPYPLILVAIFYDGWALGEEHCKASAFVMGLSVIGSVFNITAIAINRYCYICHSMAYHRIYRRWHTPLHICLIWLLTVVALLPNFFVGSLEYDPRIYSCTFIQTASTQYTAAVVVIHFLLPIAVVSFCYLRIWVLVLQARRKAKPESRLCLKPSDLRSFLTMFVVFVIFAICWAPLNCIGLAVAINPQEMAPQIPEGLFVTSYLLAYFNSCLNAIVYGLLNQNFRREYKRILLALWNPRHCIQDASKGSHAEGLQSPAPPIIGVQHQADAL
Briefly: cAMP assay (GloSensor), isoproterenol-stimulated cAMP in HEK cells. It is filed as cell-based. The arrangement: expressed in transfected cells; host or cells: HEK-T (HEK-293 T) cells, co-transfected with GloSensor DNA. The settings on record: for hMT2 pEC50: FIG. 3D-3F, transiently expressed receptor, isoproterenol-stimulated cAMP production; for hMT2 Schild slope / hMT2 pKB: Schild analysis, competitive antagonism of melatonin. The method, then:
MT1 and MT2 receptors were tested using Promega's spilt luciferase based GboSensor cAMP biosensor technology. HEK-T cells were plated in 15 cm cell culture dish (at a density of 18 million cells) containing DMEM composed of 10% dialyzed FBS, 2 mM L-glutamine, 100 units/ml penicillin G, 100 μg/ml streptomycin for 4-6 hour. Then, cells were co-transfected with 8 μg of construct which encodes either MT1 or MT2 (de-Tangonized constructs) and […] of Glosensor DNA. […] The next day, cell medium were discarded and loaded with 20 μl of assay buffer (1×HBSS, 20 mM HEPES, pH 7.4, 0.1% BSA). To measure agonist activity of MT1 or MT2 receptor, 10 μl of test compound solution at 3× final concentration was added for 15 minutes followed by addition of 10 μl of luciferin/isoproterenol mixture (at a final concentration of 4 mM and 200 nM respectively) for another 15 mins for luminescence quantification. Then, plates were counted using SpectraMax luminescence reader (Molecular Device). Data were analyzed using GraphPad Prism 6.0.

Where two headings read alike, the source gives them in different places.

As a reminder, the AUC is the area under the concentration-time curve, a measure of exposure. A lower AUC goes with low exposure. What is called Cmax is the peak of the concentration-time curve. As a reminder, the Vss is a proportionality between amount in the body and measured concentration, not a real space. Read a low Vss as little distribution into tissue. What is called Emax is the greatest response seen or fitted, relative to the assay's reference.

In data set [1], `COc1ccc(Br)c(CNc2cccnc2)c1` [ZINC128734226] yielded an AUC of 282.1 ng·h/mL, a CL of 117.9 mL/min/kg, a Cmax of 1922.8 ng/mL and a Vss of 1.11 L/kg. In addition, in data set [1], the “Brain/Plasma Ratio” value was 1.58 (30′) and the T1/2 was determined as 17.4 min. Moreover, in data set [2] (0.9 or 30 μg/Kg doses, CT10, in words), the “effect on circadian phase” value was “did not significantly affect circadian phase”. Moreover, the “hMT2 pEC50” value in data set [3] amounted to 8.15±0.09. The Emax in data set [3] (HEK293, FIG. 3F, normalized to maximal melatonin effect, read-out: hMT2 Emax) amounted to 89 ± 3%. For the same molecule, the Emax in data set [3] (HEK293, Table 2, agonist, normalized to melatonin response, read-out: MT2 % Emax (converted)) was 89%. Moreover, the Emax in data set [3] (HEK293, Table 4, agonist, read-out: Emax % MT2) came to 80%. Besides, the “pIC50 MT2” value in data set [3] (Table 4, agonist) is recorded as 8.2. Moreover, the EC50 in data set [3] (agonist, isoproterenol-stimulated cAMP inhibition, read-out: EC50 at MT2) amounted to 6.3 nM.

Consider `Clc1ccc(CNc2cccc(-c3nnc[nH]3)c2)c(Br)c1` [ZINC555417447], for which, in data set [1], the AUC was 494.5 ng·h/mL, the CL was 67.11 mL/min/kg, the Cmax is recorded as 1948.6 ng/mL and the Vss was 1.11 L/kg. Also, in data set [1], the “Brain/Plasma Ratio” value is on record as 3.03 (30′) and the T1/2 came out at 16.2 min. Further, in data set [2] (WT), the “advance of the onset of activity” value is “approximately 1 hour”. Moreover, the “advance of the onset of running wheel activity” value in data set [2] (in words) was “advanced the onset of running wheel activity with an amplitude equivalent to, or even larger than that of melatonin”. The “phase shift of RW activity onset at CT2” value in data set [2] (30 μg/mouse s.c., CT2 (dawn), WT, MT1KO, MT2KO, in words) is “did not phase shift RW activity onset”. In addition, in data set [2] (30 μg/mouse s.c., CT10, MT1KO, in words), the “phase advance activity in MT1KO mice” value is listed as “ablation of the activity”. Also, in data set [2] (30 μg/mouse s.c., CT10, MT2KO, in words), the “phase advance activity in MT2KO mice” value is “maintenance of its activity”. Also, the “EC50 of in vivo activity (circadian phase shift)” value in data set [2] turned out to be 30 µg/kg. Further, in data set [3], the “hMT2 pEC50” value is reported as 5.66±0.10, the “hMT2 Schild slope” value came to 1.3±0.4 and the “hMT2 pKB” value amounted to 6.2±0.1. Also, in data set [3] (HEK293, FIG. 3D-3E, normalized to isoproterenol-stimulated basal activity, read-out: hMT2 Emax), the Emax is -84 ± 9%. The Emax in data set [3] (HEK293, Table 2, cell marked Inverse (inverse agonist), read-out: MT2 % Emax (converted)) was 84%. Further, in data set [3] (Table 4, IA (inverse agonist), read-out: pEC50 MT2 (IA) (converted)), the EC50 is 1000 nM.

For the molecule `CC(C)c1ccc(CNc2cccc(-c3ncn[nH]3)c2)cc1` [ZINC157673384], in data set [1], the AUC came to 563.8 ng·h/mL, the CL amounted to 58.48 mL/min/kg, the Cmax turned out to be 1299.6 ng/mL and the Vss is reported as 1.38 L/kg. Also, in data set [1], the “Brain/Plasma Ratio” value is 1.43 (30′) and the T1/2 turned out to be 19.2 min. In data set [2] (WT), the “advance of the onset of activity” value is listed as “approximately 1 hour”. In data set [2] (in words), the “advance of the onset of running wheel activity” value is reported as “advanced the onset of running wheel activity with an amplitude equivalent to, or even larger than that of melatonin”. For the same molecule, the “EC50 of in vivo activity (circadian phase shift)” value in data set [2] was determined as 30 µg/kg. The “hMT2 Emax” value in data set [3] (FIG. 3D-3E, normalized to isoproterenol-stimulated basal activity) is −153±14%. Further, in data set [3], the “hMT2 pEC50” value stood at 6.18±0.04, the “hMT2 Schild slope” value worked out at 1.0±0.1 and the “hMT2 pKB” value amounted to 6.7±0.1. In addition, the “MT2 % Emax” value in data set [3] (Table 2, cell marked Inverse (inverse agonist)) is given as 153 ± 14%. For the same molecule, the “pEC50 MT2 (IA)” value in data set [3] (Table 4, IA (inverse agonist)) is reported as 6.5.
